Reference: the supplement of paper PMC10307832

Legend:
Experiment in all cases: relative viability (nuclei count vs DMSO), 5 days (fraction); higher = more cells survive
[1] = compound: CC(O)(CS(=O)(=O)c1ccc(F)cc1)C(=O)Nc1ccc(C#N)c(C(F)(F)F)c1 [Bicalutamide] + NC(=O)Nc1cc(-c2cccc(F)c2)sc1C(=O)N[C@H]1CCCNC1 [AZD7762] (partner 0.2 µM)
Procedure, shortened: (§1)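 Dosing by pin tool came one day after lung cancer cell lines were seeded in 1536-well plates, using either one drug or a fixed anchor-drug dose plus five library-drug doses (not always all listed) in √10 steps. After 5 days, nuclei were counted on 4× images. Relative viability is treated-well nuclei count divided by vehicle-well nuclei count, and values are medians of duplicate plates.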

[2] = compound: C(C(=O)C(=O)O)Br [Bromopyruvate] + C[C@@H](Oc1cc(-c2cnn(C3CCNCC3)c2)cnc1N)c1c(Cl)ccc(F)c1Cl [Crizotinib] (partner 1 µM)
Procedure, shortened: as §1

[3] = compound: C(C(=O)C(=O)O)Br [Bromopyruvate] + CC(C)C[C@H](NC(=O)[C@H](Cc1ccccc1)NC(=O)c1cnccn1)B(O)O [Bortezomib] (partner 0.002 µM)
Procedure, shortened: as §1

[4] = compound: CC(O)(CS(=O)(=O)c1ccc(F)cc1)C(=O)Nc1ccc(C#N)c(C(F)(F)F)c1 [Bicalutamide] + CC(C)C[C@H](NC(=O)[C@H](Cc1ccccc1)NC(=O)c1cnccn1)B(O)O [Bortezomib] (partner 0.002 µM)
Procedure, shortened: as §1

Cell Line	relative viability ([1]; first compound 0.08 µM)	relative viability ([1]; first compound 0.253 µM)	relative viability ([1]; first compound 0.8 µM)	relative viability ([1]; first compound 2.53 µM)	relative viability ([2]; first compound 1 µM)	relative viability ([2]; first compound 3.162 µM)	relative viability ([2]; first compound 10 µM)	relative viability ([2]; first compound 31.62 µM)	relative viability ([2]; first compound 100 µM)	relative viability ([3]; first compound 1 µM)	relative viability ([3]; first compound 3.162 µM)	relative viability ([3]; first compound 10 µM)	relative viability ([3]; first compound 31.62 µM)	relative viability ([3]; first compound 100 µM)	relative viability ([4]; first compound 0.253 µM)	relative viability ([4]; first compound 0.8 µM)	relative viability ([4]; first compound 2.53 µM)	relative viability ([4]; first compound 0.08 µM)
NCI-H2342	0.553	0.478	0.528	0.568	–	–	–	–	–	–	–	–	–	–	–	–	–	–
SK-MES-1	–	–	–	–	0.974	0.952	1.02	0.997	1.05	–	–	–	–	–	–	–	–	–
NCI-H1993	0.539	0.744	0.919	0.58	1.25	0.931	0.899	0.84	0.867	1.34	0.954	1.21	1.08	1.15	0.897	1.31	1.12	–
HCC-366	0.392	0.229	0.332	0.281	0.569	0.54	0.947	0.548	0.474	1.04	1.06	1.38	1.09	1.18	1.02	1.43	1.04	1.04
201T	0.637	0.408	0.586	0.599	1.06	1.03	1.02	1.02	1.08	1.11	1.08	1.11	1.1	1.03	1.06	1.08	1.12	1.1
HCC-827	0.234	0.124	0.217	0.227	0.939	0.919	0.931	0.999	0.964	1.05	1.07	1.03	1.08	1.05	0.964	1.04	0.98	1.12
NCI-H650	0.847	1.09	1.21	0.886	0.7	0.721	0.678	0.634	0.711	0.946	0.819	0.856	0.897	0.973	0.87	0.918	0.553	0.907
NCI-H2085	0.983	0.99	1.02	0.901	0.823	0.984	0.874	0.778	0.797	1.07	1.18	1.15	1	0.792	0.944	1.08	0.996	1.14
NCI-H596	1.13	1.04	1.08	1.11	0.98	1	1.07	0.952	1.17	–	1.14	1.01	0.915	1.03	1.11	1.01	1.04	1.19
SK-LU-1	–	–	–	–	1.05	0.99	0.831	0.856	0.794	1.44	1.01	1.82	0.987	1.27	1.37	1.89	1.09	1.33
A-427	0.807	0.677	0.855	0.583	0.878	0.873	0.82	0.741	0.793	0.999	1.02	0.931	1.05	1.06	1.12	1	0.93	1.04
NCI-H460	0.816	0.659	0.76	0.735	0.771	0.921	1.09	0.919	0.714	1.06	1.14	1.34	0.978	1.07	1.09	1.35	1.12	1.15
NCI-H1703	0.123	0.117	0.162	0.174	0.736	0.946	0.589	0.862	0.75	0.369	0.244	0.366	0.315	0.543	0.427	0.317	0.204	0.374
NCI-H1792	0.756	0.522	0.741	0.644	1.11	1.03	1.09	0.878	0.984	1.01	0.932	1.11	0.879	0.915	0.957	0.983	1.07	0.983
Calu-6	–	–	–	–	0.659	0.843	0.938	0.79	0.546	1.09	1.05	1.07	0.993	0.903	0.857	1.05	0.922	1.08
SW 1573	–	–	–	–	1.02	0.815	0.76	0.803	0.57	0.935	1.02	1.18	1.08	0.392	0.842	1.25	0.912	1.05
RERF-LC-KJ	0.982	0.847	1.47	0.867	0.771	0.82	0.855	0.813	0.891	1.09	1.14	1	1.18	1.29	0.951	1.23	1.07	1.24
EMC-BAC-2	1.05	1	1.09	0.735	0.611	0.723	0.798	0.788	0.756	0.99	1.14	1.2	1.02	1.12	0.968	1.15	0.929	1.04
LK-2	0.432	0.254	0.442	0.495	0.292	0.238	0.207	0.223	0.257	–	–	–	–	–	–	–	–	–
NCI-H2228	–	–	–	–	0.44	0.641	0.492	0.404	0.617	0.857	1.15	1.36	0.817	0.946	1.11	1.31	1.11	1.07
NCI-H322M	0.581	0.521	0.579	0.572	0.958	0.804	0.948	0.806	0.943	1.2	1.25	1.12	1.18	1.26	1.32	1.4	1.35	1.13
NCI-H1975	0.769	0.783	0.722	0.667	0.95	0.955	1	0.981	0.955	0.423	0.431	0.475	0.405	0.5	0.296	0.417	0.372	0.314
NCI-H1944	0.496	0.438	0.519	0.366	1.08	1.09	1.12	1.07	1.14	–	–	–	–	–	–	–	–	–

Cell Line	relative viability ([1]; first compound 0.08 µM)	relative viability ([1]; first compound 0.253 µM)	relative viability ([1]; first compound 0.8 µM)	relative viability ([1]; first compound 2.53 µM)	relative viability ([2]; first compound 1 µM)	relative viability ([2]; first compound 3.162 µM)	relative viability ([2]; first compound 10 µM)	relative viability ([2]; first compound 31.62 µM)	relative viability ([2]; first compound 100 µM)	relative viability ([3]; first compound 1 µM)	relative viability ([3]; first compound 3.162 µM)	relative viability ([3]; first compound 10 µM)	relative viability ([3]; first compound 31.62 µM)	relative viability ([3]; first compound 100 µM)	relative viability ([4]; first compound 0.253 µM)	relative viability ([4]; first compound 0.8 µM)	relative viability ([4]; first compound 2.53 µM)	relative viability ([4]; first compound 0.08 µM)
LU99A	0.431	0.286	0.544	0.252	0.488	0.689	0.591	0.554	0.672	1.18	1.11	1.05	1.05	1.26	0.964	1.24	0.846	0.995
NCI-H2405	0.739	0.713	0.88	0.694	0.79	0.841	1.04	0.696	0.907	1.02	0.992	1.19	0.954	1.04	1.01	1.05	0.986	1.02
NCI-H2023	–	–	–	–	0.685	0.658	0.618	0.785	0.542	0.95	1.09	0.969	0.914	1.06	0.932	1.11	0.8	1.09
HCC-15	1.07	1.05	1.2	1.09	0.823	0.898	0.793	0.817	0.905	0.98	1.03	1.03	0.99	0.973	0.953	1.21	0.983	1.03
HCC-44	1.02	1.05	1.02	1.01	0.787	0.724	0.735	0.862	0.884	0.914	0.897	0.872	0.918	0.962	0.953	0.961	0.989	0.936
COR-L23	–	–	–	–	0.564	0.597	0.717	0.713	0.336	0.943	0.939	1.12	0.975	0.486	0.862	1.13	0.926	1.09
NCI-H1299	–	–	–	–	0.933	0.994	0.995	0.945	0.957	0.973	1.02	1.06	0.956	1	1.05	0.969	1.04	0.974
NCI-H661	–	–	–	–	1.05	0.897	0.854	1.12	1.11	0.862	0.755	0.84	0.854	0.98	0.931	0.81	0.849	0.84
NCI-H1650	–	–	–	–	0.898	1.24	0.942	0.922	0.56	0.196	0.194	0.209	0.255	0.19	0.204	0.192	0.175	0.172
NCI-H1793	0.705	–	0.432	0.282	–	–	–	–	–	–	–	–	–	–	–	–	–	–
COR-L 105	–	–	–	–	0.716	1.09	0.739	0.583	0.439	0.559	0.876	0.526	0.769	0.566	0.87	0.98	0.501	0.761
NCI-H2009	–	–	–	–	1.05	1.1	1.03	0.921	0.724	1.02	1.02	0.918	0.897	0.768	1.03	1.16	0.88	1.26
NCI-H520	–	–	–	–	0.716	0.707	0.737	0.685	0.673	0.6	0.595	0.532	0.49	0.541	0.391	0.96	0.432	0.576
NCI-H1648	–	–	0.736	0.686	–	–	–	–	–	–	–	–	–	–	–	–	–	–
NCI-H1563	–	–	–	–	0.883	0.979	0.956	0.828	0.998	0.859	0.925	0.868	0.789	0.943	0.775	0.885	0.767	0.973
A549	–	–	–	–	0.731	0.806	0.858	0.754	0.736	–	–	–	–	–	–	–	–	–
NCI-H522	0.762	0.849	0.916	0.808	–	–	–	–	–	–	–	–	–	–	–	–	–	–
NCI-H2170	0.805	0.817	1.26	0.902	1.33	1.24	1.2	1.29	1.15	–	–	–	–	–	–	–	–	–
SW 900	0.707	0.645	0.745	0.586	–	–	–	–	–	–	–	–	–	–	–	–	–	–
NCI-H1395	0.402	0.399	0.394	0.377	–	–	–	–	–	–	–	–	–	–	–	–	–	–
IA-LM	–	–	–	–	0.642	0.796	0.634	0.789	0.522	0.872	0.835	0.908	0.835	0.64	0.86	0.966	0.837	0.819
NCI-H358	0.562	0.489	0.64	0.547	0.681	0.702	0.521	0.604	0.64	–	–	–	–	–	–	–	–	–
EBC-1	–	–	–	–	0.235	0.218	0.187	0.187	0.196	0.527	0.67	0.56	0.574	0.511	0.537	0.592	0.477	0.584
